Experimental data from PubChem BioAssay AID1259407 (Chemical Carcinogenesis Research Information System (CCRIS), 2018).
Activity calls are given as the source filed them. How the calls were made is not given here.

Test system: CCRIS mutagenicity, Ames/micronucleus/aberration tests
Assay: CCRIS mutagenicity studies
[1] = Test System: AMES SALMONELLA TYPHIMURIUM, Strain/Indicator: TA97, Metabolic Activation: NONE, Method: STANDARD PLATE
[2] = Test System: AMES SALMONELLA TYPHIMURIUM, Strain/Indicator: TA98, Metabolic Activation: NONE, Method: STANDARD PLATE
[3] = Test System: AMES SALMONELLA TYPHIMURIUM, Strain/Indicator: TA100, Metabolic Activation: NONE, Method: STANDARD PLATE
[4] = Test System: AMES SALMONELLA TYPHIMURIUM, Strain/Indicator: TA98, Metabolic Activation: NONE, Method: PREINCUBATION
[5] = Test System: AMES SALMONELLA TYPHIMURIUM, Strain/Indicator: TA100, Metabolic Activation: NONE, Method: PREINCUBATION
[6] = Test System: AMES SALMONELLA TYPHIMURIUM, Strain/Indicator: TA1535, Metabolic Activation: NONE, Method: PREINCUBATION

NC1CCC(N)CC1 (configuration not stated)
mutagenic call [1]: inactive; negative
mutagenic call (Test System: AMES SALMONELLA TYPHIMURIUM, Strain/Indicator: TA97, Metabolic Activation: RAT, LIVER, S-9, Method: STANDARD PLATE): inactive; negative
mutagenic call [2]: inactive; negative
mutagenic call (Test System: AMES SALMONELLA TYPHIMURIUM, Strain/Indicator: TA98, Metabolic Activation: RAT, LIVER, S-9, Method: STANDARD PLATE): inactive; negative
mutagenic call [3]: inactive; negative
mutagenic call (Test System: AMES SALMONELLA TYPHIMURIUM, Strain/Indicator: TA100, Metabolic Activation: RAT, LIVER, S-9, Method: STANDARD PLATE): inactive; negative
mutagenic call (Test System: AMES SALMONELLA TYPHIMURIUM, Strain/Indicator: TA1535, Metabolic Activation: NONE, Method: STANDARD PLATE): inactive; negative
mutagenic call (Test System: AMES SALMONELLA TYPHIMURIUM, Strain/Indicator: TA1535, Metabolic Activation: RAT, LIVER, S-9, Method: STANDARD PLATE): inactive; negative

c1ccc2c(c1)-c1cc3ccccc3c3cc4ccccc4c-2c13
mutagenic call (Test System: AMES SALMONELLA TYPHIMURIUM, Strain/Indicator: TA100, Metabolic Activation: MOUSE, LIVER, S-9, 3-METHYLCHOLANTHRENE, Method: STANDARD PLATE): active; positive
mutagenic call (Test System: AMES SALMONELLA TYPHIMURIUM, Strain/Indicator: TA100, Metabolic Activation: RAT, LIVER, S-9, 3-METHYLCHOLANTHRENE, Method: STANDARD PLATE): active; positive
mutagenic call (Test System: HUMAN H1A1V2 CELLS, Strain/Indicator: TK LOCUS, Metabolic Activation: NONE, Method: SUSPENSION/PLATE): active; positive

O=C(Br)CBr
mutagenic call (End Point: IN VITRO CHROMOSOMAL ABERRATIONS, Test System: CHL CELLS, Metabolic Activation: RAT, LIVER, S-9, SODIUM PHENOBARBITAL AND 5,6-BENZOFLAVONE): inactive; negative; authors report equivocal results for structural changes at 0.02 mg/ml
mutagenic call [4]: inactive; negative
mutagenic call (Test System: AMES SALMONELLA TYPHIMURIUM, Strain/Indicator: TA98, Metabolic Activation: RAT, LIVER, S-9, PHENOBARBITAL AND BETA-NAPHTHOFLAVONE, Method: PREINCUBATION): inactive; negative
mutagenic call [5]: inactive; negative
mutagenic call (Test System: AMES SALMONELLA TYPHIMURIUM, Strain/Indicator: TA100, Metabolic Activation: RAT, LIVER, S-9, PHENOBARBITAL AND BETA-NAPHTHOFLAVONE, Method: PREINCUBATION): inactive; negative
mutagenic call (Test System: AMES SALMONELLA TYPHIMURIUM, Strain/Indicator: TA102, Metabolic Activation: NONE, Method: PREINCUBATION): inactive; negative
mutagenic call (Test System: AMES SALMONELLA TYPHIMURIUM, Strain/Indicator: TA102, Metabolic Activation: RAT, LIVER, S-9, PHENOBARBITAL AND BETA-NAPHTHOFLAVONE, Method: PREINCUBATION): inactive; negative
mutagenic call (Test System: AMES SALMONELLA TYPHIMURIUM, Strain/Indicator: TA104, Metabolic Activation: NONE, Method: PREINCUBATION): active; positive
mutagenic call (Test System: AMES SALMONELLA TYPHIMURIUM, Strain/Indicator: TA104, Metabolic Activation: RAT, LIVER, S-9, PHENOBARBITAL AND BETA-NAPHTHOFLAVONE, Method: PREINCUBATION): active; positive
mutagenic call [6]: inactive; negative
mutagenic call (Test System: AMES SALMONELLA TYPHIMURIUM, Strain/Indicator: TA1535, Metabolic Activation: RAT, LIVER, S-9, PHENOBARBITAL AND BETA-NAPHTHOFLAVONE, Method: PREINCUBATION): inactive; negative
mutagenic call (Test System: AMES SALMONELLA TYPHIMURIUM, Strain/Indicator: TA1537, Metabolic Activation: NONE, Method: PREINCUBATION): inactive; negative
mutagenic call (Test System: AMES SALMONELLA TYPHIMURIUM, Strain/Indicator: TA1537, Metabolic Activation: RAT, LIVER, S-9, PHENOBARBITAL AND BETA-NAPHTHOFLAVONE, Method: PREINCUBATION): inactive; negative
mutagenic call (Test System: E. COLI, Strain/Indicator: WP2UVRA/PKM101, Metabolic Activation: RAT, LIVER, S-9, PHENOBARBITAL AND BETA-NAPHTHOFLAVONE, Method: PREINCUBATION): active; positive
mutagenic call (Test System: E. COLI, Strain/Indicator: WP2UVRA, Metabolic Activation: NONE, Method: PREINCUBATION): inactive; negative
mutagenic call (Test System: E. COLI, Strain/Indicator: WP2UVRA, Metabolic Activation: RAT, LIVER, S-9, PHENOBARBITAL AND BETA-NAPHTHOFLAVONE, Method: PREINCUBATION): inactive; negative

CCNc1nc(NC(C)C)[nH]c(=O)n1
mutagenic call [1]: inactive; negative
mutagenic call [2]: inactive; negative
mutagenic call [3]: inactive; negative

O=CNc1ccccc1
mutagenic call (Test System: AMES SALMONELLA TYPHIMURIUM, Strain/Indicator: TA97, Metabolic Activation: HAMSTER, LIVER, S-9, AROCLOR 1254 (10 OR 30%), Method: PREINCUBATION): inactive; negative
mutagenic call (Test System: AMES SALMONELLA TYPHIMURIUM, Strain/Indicator: TA97, Metabolic Activation: NONE, Method: PREINCUBATION): inactive; negative
mutagenic call (Test System: AMES SALMONELLA TYPHIMURIUM, Strain/Indicator: TA97, Metabolic Activation: RAT, LIVER, S-9, AROCLOR 1254 (10 OR 30%), Method: PREINCUBATION): inactive; negative
mutagenic call (Test System: AMES SALMONELLA TYPHIMURIUM, Strain/Indicator: TA98, Metabolic Activation: HAMSTER, LIVER, S-9, AROCLOR 1254 (10 OR 30%), Method: PREINCUBATION): inactive; negative
mutagenic call [4]: inactive; negative
mutagenic call (Test System: AMES SALMONELLA TYPHIMURIUM, Strain/Indicator: TA98, Metabolic Activation: RAT, LIVER, S-9, AROCLOR 1254 (10 OR 30%), Method: PREINCUBATION): inactive; negative
mutagenic call (Test System: AMES SALMONELLA TYPHIMURIUM, Strain/Indicator: TA100, Metabolic Activation: HAMSTER, LIVER, S-9, AROCLOR 1254 (10 OR 30%), Method: PREINCUBATION): inactive; negative
mutagenic call [5]: inactive; negative
mutagenic call (Test System: AMES SALMONELLA TYPHIMURIUM, Strain/Indicator: TA100, Metabolic Activation: RAT, LIVER, S-9, AROCLOR 1254 (10 OR 30%), Method: PREINCUBATION): inactive; negative
mutagenic call (Test System: AMES SALMONELLA TYPHIMURIUM, Strain/Indicator: TA1535, Metabolic Activation: HAMSTER, LIVER, S-9, AROCLOR 1254 (10 OR 30%), Method: PREINCUBATION): inactive; negative
mutagenic call [6]: inactive; negative
mutagenic call (Test System: AMES SALMONELLA TYPHIMURIUM, Strain/Indicator: TA1535, Metabolic Activation: RAT, LIVER, S-9, AROCLOR 1254 (10 OR 30%), Method: PREINCUBATION): inactive; negative
